Data taken from US11130769B2 (Prelude Therapeutics Incorporated, priority 2018, dated 2021).
pIC50, pKi: −log10 of the molar value.

Assays:
MCL-1 = MCL-1 (Homo sapiens (Human), UniProt Q07820); test: Cell free Mcl-1:Bim affinity assay (fluorescence polarization competition); type: binding; conditions: 15 nM MCL-1, 5 nM FITC-Bim, 1 hour at room temperature; class symbols; read-out: BIM_Ki
Summary of the method: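 Fluorescence polarization competition: 10-point 3-fold compound dilutions displaced 5 nM FITC-Bim from 15 nM MCL-1 over 1 h at room temperature. Ki was derived from the fitted IC50 using the Nikolovska-Coleska equation, with percent inhibition normalized to DMSO and positive controls.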

H929 cells = test: Cell viability assay (H929 10 FBS); type: cell-based; conditions: Homo sapiens, NCI-H929, 24 hours, read-out: H929_10FBS IC50
Summary of the method: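 ATP-based luminescence (CellTiter-Glo or ATPlite 1 Step, 30-60 min at RT) gauged viability of H929 myeloma cells after 24 h compound treatment at 37 °C. Cells plated at 4000 per well in 10% FBS RPMI 1640 supplemented with pyruvate, HEPES and glucose.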

Chain of MCL-1 (Q07820 whole entry): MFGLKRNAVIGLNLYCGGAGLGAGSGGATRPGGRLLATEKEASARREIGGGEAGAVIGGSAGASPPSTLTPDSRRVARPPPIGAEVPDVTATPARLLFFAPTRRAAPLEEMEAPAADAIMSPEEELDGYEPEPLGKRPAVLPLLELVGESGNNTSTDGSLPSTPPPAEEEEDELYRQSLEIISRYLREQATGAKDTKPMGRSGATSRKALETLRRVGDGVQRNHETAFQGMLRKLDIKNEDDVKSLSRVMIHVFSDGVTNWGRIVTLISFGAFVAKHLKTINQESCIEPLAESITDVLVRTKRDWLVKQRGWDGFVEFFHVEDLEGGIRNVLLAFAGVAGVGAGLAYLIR

SMILES	pKi (MCL-1)	pIC50 (H929 cells)
CC(C)N1CCN(C(=O)O[C@H]2/C=C/COC(C)(C)C(=O)NS(=O)(=O)c3ccc4c(c3)N(C[C@@H]3CC[C@H]32)C[C@@]2(CCCc3cc(Cl)ccc32)CO4)CC1 [Example 186, [(3R,6R,7S,8E,22S)-6′-Chloro-12,12-dimethyl-13,15,15-trioxo-spiro[11,20-dioxa-15-thia-1,14-diazatetracyclo[14.7.2.03,6.019,24]pentacosa-8,16,18,24-tetraene-22,1′-tetralin]-7-yl] 4-isopropylpiperazine-1-carboxylate]	> 9.00	> 6.30
CC1(C)OC/C=C/[C@H](OCCN2C[C@@H](F)[C@@H](F)C2)[C@@H]2CC[C@H]2CN2C[C@@]3(CCCc4cc(Cl)ccc43)COc3ccc(cc32)S(=O)(=O)NC1=O [Example 269, (3R,6R,7S,8E,22S)-6′-Chloro-7-[2-[(3R,4S)-3,4-difluoropyrrolidin-1-yl]ethoxy]-12,12-dimethyl-15,15-dioxo-spiro[11,20-dioxa-15-thia-1,14-diazatetracyclo[14.7.2.03,6.019,24]pentacosa-8,16,18,24-tetraene-22,1′-tetralin]-13-one]	> 9.00	> 6.30
CC1(C)OC/C=C/[C@H](OC(=O)NC2CC2)[C@@H]2CC[C@H]2CN2C[C@@]3(CCCc4cc(Cl)ccc43)COc3ccc(cc32)S(=O)(=O)NC1=O [Example 188, [(3R,6R,7S,8E,22S)-6′-Chloro-12,12-dimethyl-13,15,15-trioxo-spiro[11,20-dioxa-15-thia-1,14-diazatetracyclo[14.7.2.03,6.019,24]pentacosa-8,16,18,24-tetraene-22,1′-tetralin]-7-yl] N-cyclopropylcarbamate]	> 9.00	> 6.30
CO[C@H]1/C=C/CC[C@H](C)C(=O)NS(=O)(=O)c2ccc3c(c2)N(C[C@@H]2CC[C@H]21)C[C@@]1(CCCc2cc(Cl)ccc21)CO3 [Example 85, (3R,6R,7S,8E,12S,22S)-6′-Chloro-7-methoxy-12-methyl-15,15-dioxo-spiro[20-oxa-15-thia-1,14-diazatetracyclo[14.7.2.03,6.019,24]pentacosa-8,16(25),17,19(24)-tetraene-22,1′-tetralin]-13-one]	7.00 to 9.00	< 6.00

Results, then the compound that gave them:

pKi (MCL-1)	pIC50 (H929 cells)	SMILES
> 9.00	> 6.30	CC1(C)OC/C=C/[C@H](OC(=O)N2CCOCC2)[C@@H]2CC[C@H]2CN2C[C@@]3(CCCc4cc(Cl)ccc43)COc3ccc(cc32)S(=O)(=O)NC1=O [Example 172, [(3R,6R,7S,8E,22S)-6′-Chloro-12,12-dimethyl-13,15,15-trioxo-spiro[11,20-dioxa-15-thia-1,14-diazatetracyclo[14.7.2.03,6.019,24]pentacosa-8,16,18,24-tetraene-22,1′-tetralin]-7-yl]morpholine-4-carboxylate]
> 9.00	> 6.30	COC1CN(C(=O)O[C@H]2/C=C/CN(C)C3(CCC3)C(=O)NS(=O)(=O)c3ccc4c(c3)N(C[C@@H]3CC[C@H]32)C[C@@]2(CCCc3cc(Cl)ccc32)CO4)C1 [Example 238, [(3R,6R,7S,8E,22S)-6′-Chloro-11-methyl-12,12-(1,3-propylene)-13,15,15-trioxo-spiro[20-oxa-15-thia-1,11,14-triazatetracyclo[14.7.2.03,6.019,24]pentacosa-8,16,18,24-tetraene-22,1′-tetralin]-7-yl] 3-methoxyazetidine-1-carboxylate]
> 9.00	> 6.30	CN(C(=O)O[C@H]1/C=C/CN(C)C(C)(C)C(=O)NS(=O)(=O)c2ccc3c(c2)N(C[C@@H]2CC[C@H]21)C[C@@]1(CCCc2cc(Cl)ccc21)CO3)[C@@H]1CCOC1 [Example 218, [(3R,6R,7S,8E,22S)-6′-Chloro-11,12,12-trimethyl-13,15,15-trioxo-spiro[20-oxa-15-thia-1,11,14-triazatetracyclo[14.7.2.03,6.019,24]pentacosa-8,16,18,24-tetraene-22,1′-tetralin]-7-yl] N-methyl-N-[(3R)-tetrahydrofuran-3-yl]carbamate]
